Measured values reported in patent publication US6740636B2 (priority 2000, dated 2004).

Experiments:
[1] = test system: allogeneic heart transplants; assay: Histology, immunohistochemistry (ED1) and rejection score of allogeneic heart transplants 3 days after transplantation; type: in vivo, rat
Protocol: Transplanted hearts were removed under deep anesthesia, quickly blotted free of blood, weighed, and then processed as needed for histology and immunohistochemistry. The organs were cut into 1-mm slices and either immersion-fixed in 4% formaldehyde in phosphate buffered saline (PBS) pH 7.35, (PBS: 99 mM NaH2PO4, 108 mM NaH2PO4 and 248 mM NaCl) for 24 h or fixed in methacarn for 8 h and embedded in paraffin. Light microscopy was performed on 3 μm sections stained by periodic acid-Schiff or Goldner-Elastica. Light microscopy was performed on allogeneic heart transplants 3 days after transplantation.
The ED1 monoclonal antibody (Serotec/Camon) was used on methacarn fixed paraffin embedded tissue (3 μm) to stain for rat monocytes/macrophage cells. An alkaline phosphatase anti-alkaline phosphatase detection system was used for visualization (Dako). Controls that omit the first or second antibody for each section were performed for negative staining. […]
Mild acute rejection (score: 1) was characterized by a sparse interstitial mononuclear infiltrate often accentuated in perivascular spaces. […] The rejection score was calculated for every tissue block and an average score was calculated from the different blocks for every transplanted heart as rejection processes tended to be focal.

[2] = test system: recipient Lewis rats given donor ACI rat grafts; assay: Heterotopic heart transplant rejection model (ACI donor, Lewis recipient); type: in vivo; settings: cyclosporin A only
Source text: In this assay an increase in allograft survival time corresponds to a decrease in heart transplant rejection in the recipient Lewis rats given donor ACI rat grafts.
Adult male, specific pathogen-free ACI (RT1a) and Lewis (RT1l) rats (Charles River, Boston, Mass.) weighing 200 to 250 g were used as donors and recipients, respectively, in these studies. Vascularized cardiac allografts were heterotopically transplanted into the abdomen of recipient rats using a modification (Nisco, S. et al., (1994), supra) of the technique of Ono and Lindsay (Ono, K. et al., (1969), supra). […] Abdominal allografts were palpated on a daily basis to assess graft function, and rejection was deemed complete when palpable ventricular contractions ceased.
The transplanted hearts were evaluated daily for signs of rejection over the course of the study.

cyclosporin A
immunohistology for ED1-positive monocytes/macrophages in allogeneic heart transplants [1]: inflammatory cell infiltrate was focal and was composed primarily of ED-1 positive cells
mean allograft survival time ([2]; 2.5 mg/kg by gavage once per day for duration of study): 7.3±0.5 days
mean allograft survival time ([2]; 10 mg/kg by gavage once per day for four days): 12.9±0.7 days
